Usually Kd stands for the constant that tells how readily two partners part at equilibrium. Broadly, the IC50 is the midpoint of a concentration-inhibition curve. One may read the inhibition as the relative decrease from the control value, in per cent.

Values joined by “and” are separate entries in the source; they are usually repeats but may differ in a detail not shown here. Identical values can stand only once. Like-named read-outs stand apart in the source and are kept apart here.

The target of test [1] is human RORγt ligand binding domain (RORγt LBD) (Homo sapiens (Human), UniProt P51449). Put plainly: RORγt ThermoFluor assay (thermal shift binding affinity). Conditions: estimated from thermal shift. The gist of the method:
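Thermal shift used 0.065 mg/mL RORγt LBD with 60 μM 1,8-ANS in 100 mM Hepes pH 7.0, 10 mM NaCl, 2.5 mM GSH and 0.002% Tween-20, heated at 1 °C/min. Fluorescence was excited at 380–400 nm and emission read at 500 nm.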

Another test concerns the target human RORγt LBD (Homo sapiens (Human), UniProt P51449). Put plainly: RORγt reporter assay (GAL4-RORγt LBD luciferase in HEK293T cells). In kind it is cell-based. The settings on record: for RORγt reporter Assay, % inhibition @ 6 μM / IC50: HEK293T cells; for IC50: 24 hours compound treatment; for inhibition at 6 µM: HEK-293T, read-out: RORγt reporter Assay, % inhibition @ 6 μM, HEK293T cells, 6 μM. The gist of the method: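 HEK293T cells transiently co-transfected with GAL4-DBD–wild-type human RORγt LBD (pBIND) and GAL4-responsive firefly luciferase reporter (pGL4.31); renilla luciferase from pBIND normalises transfection/viability. Cells in phenol-red-free DMEM, 5% lipid-reduced FCS, treated with compound 24 h. Firefly/renilla ratio plotted against compound concentration.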

Test [2] concerns IL-17 production by CD4 T cells. Put plainly: Human Th17 assay (IL-17 production by CD4 T cells under Th17 differentiation). The format is cell-based. Conditions: human CD4+ T cells, IL-17 after 3 days, read-out: Human Th17 Assay, IC50 μM. The method in brief:
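Healthy-donor peripheral CD4+ T cells (1.5×10^5/well) preincubated 1 h with titrated compound (0.2% DMSO), then differentiated with anti-CD3/CD28 beads, anti-IL4, anti-IFNγ, IL1β, IL23, IL6, TGFβ and IL2 for 3 days at 37 °C. Supernatant IL-17 quantified by MSD electrochemiluminescence against a standard curve; IC50 fitted.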

Sequence of human RORγt LBD (P51449 258-518): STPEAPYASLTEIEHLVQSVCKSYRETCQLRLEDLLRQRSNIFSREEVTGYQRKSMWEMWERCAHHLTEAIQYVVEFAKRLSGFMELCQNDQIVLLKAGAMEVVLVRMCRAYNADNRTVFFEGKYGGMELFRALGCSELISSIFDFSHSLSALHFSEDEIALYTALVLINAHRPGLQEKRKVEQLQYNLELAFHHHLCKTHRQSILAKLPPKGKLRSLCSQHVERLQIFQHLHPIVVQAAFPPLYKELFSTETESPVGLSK
Sequence of human RORγt ligand binding domain (RORγt LBD) (P51449 other isoform, or with tags, fused parts or gaps): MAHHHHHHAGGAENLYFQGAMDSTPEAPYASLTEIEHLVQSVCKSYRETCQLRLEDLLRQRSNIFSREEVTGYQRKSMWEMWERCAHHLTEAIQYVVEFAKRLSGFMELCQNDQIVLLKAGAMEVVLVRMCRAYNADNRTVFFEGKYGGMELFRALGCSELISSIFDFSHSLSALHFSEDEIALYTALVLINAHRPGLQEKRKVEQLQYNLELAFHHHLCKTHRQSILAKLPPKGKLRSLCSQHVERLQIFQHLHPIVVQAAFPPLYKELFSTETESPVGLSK

With `COc1nc2ccc(C(O)(c3ccc(C(F)(F)F)nc3)c3cncn3C)cc2c(C#N)c1Cc1ccc(-n2cccn2)cc1` (single isomer, unassigned) [Example 73C, 3-(4-(1H-Pyrazol-1-yl)benzyl)-6-(hydroxy(1-methyl-1H-imidazol-5-yl)(6-(trifluoromethyl)pyridin-3-yl)methyl)-2-methoxyquinoline-4-carbonitrile], the Kd in test [1] was 34 nM. At human RORγt LBD, the “RORγt reporter Assay, % inhibition @ 6 μM” value is recorded as 99% and the IC50 was 0.31 µM. Moreover, the IC50 in test [2] was 0.13 µM.

As to `CCN(CC)c1nc2ccc(C(O)(c3ccc(C(F)(F)F)nc3)c3cncn3C)cc2c(C#N)c1Cc1ccc(-n2cccn2)cc1` (single isomer, unassigned) [Example 74B, 3-(4-(1H-Pyrazol-1-yl)benzyl)-2-(diethylamino)-6-(hydroxy(1-methyl-1H-imidazol-5-yl)(6-(trifluoromethyl)pyridin-3-yl)methyl)quinoline-4-carbonitrile], the Kd in test [1] was 1300 nM. Also, the IC50 stood at 0.17 µM against human RORγt LBD and 0.091 µM in test [2] (Homo sapiens, CD4+ T, 72 h). Moreover, at human RORγt LBD, the inhibition at 6 µM is 95%.

On to `CCN(CC)c1nc2ccc(C(O)(c3ccc(Cl)cc3)c3cncn3C)cc2c(Cl)c1Cc1ccc(-n2cccn2)cc1` (single isomer, unassigned) [Example 75C, (3-(4-(1H-Pyrazol-1-yl)benzyl)-4-chloro-2-(diethylamino)quinolin-6-yl)(4-chlorophenyl)(1-methyl-1H-imidazol-5-yl)methanol], for which the Kd in test [1] is 150 nM. For the same compound, at human RORγt LBD, the “RORγt reporter Assay, % inhibition @ 6 μM” value worked out at 90% and 0.18 µM corresponded to half-maximal inhibition (IC50). The IC50 in test [2] (Homo sapiens, CD4+ T, 72 h) was 0.14 µM.

Turning to `COc1nc2ccc(C(O)(c3ccc(C#N)cc3)c3cncn3C)cc2c(C#N)c1Cc1ccc(-n2cccn2)cc1` (single isomer, unassigned) [Example 76C, 3-(4-(1H-Pyrazol-1-yl)benzyl)-6-((4-cyanophenyl)(hydroxy)(1-methyl-1H-imidazol-5-yl)methyl)-2-methoxyquinoline-4-carbonitrile], in test [1], the Kd is 15 nM. For the same compound, the “RORγt reporter Assay, % inhibition @ 6 μM” value at human RORγt LBD was found to be 101%. In addition, the IC50 against human RORγt LBD turned out to be 0.045 µM; in test [2] (Homo sapiens, CD4+ T, 72 h), 0.033 µM.

Consider `COc1nc2ccc(C(O)(c3sc(C)nc3C)c3cnnn3C)cc2c(Cl)c1Cc1ccc(C(F)(F)F)cc1` (single isomer, unassigned) [Example 79B, (4-Chloro-2-methoxy-3-(4-(trifluoromethyl)benzyl)quinolin-6-yl)(2,4-dimethylthiazol-5-yl)(1-methyl-1H-1,2,3-triazol-5-yl)methanol], for which the Kd in test [1] was 57 nM. On human RORγt LBD, the IC50 came out at 0.038 µM and the inhibition at 6 µM is 99%. Besides, in test [2] (Homo sapiens, CD4+ T, 72 h), the IC50 turned out to be 0.052 µM.

As to `COc1nc2ccc(C(O)(c3cnnn3C)c3cnc(C)n3C)cc2c(C#N)c1Cc1ccc(C(F)(F)F)cc1` (single isomer, unassigned) [Example 81B, 6-((1,2-Dimethyl-1H-imidazol-5-yl)(hydroxy)(1-methyl-1H-1,2,3-triazol-5-yl)methyl)-2-methoxy-3-(4-(trifluoromethyl)benzyl)quinoline-4-carbonitrile], the Kd in test [1] is 0.05 nM. At human RORγt LBD, the IC50 is 0.002 µM and ~0.0002 µM; the inhibition at 6 µM was 104%. Further, the IC50 in test [2] (Homo sapiens, CD4+ T, 72 h) was 0.0022 µM.

Turning to `COc1nc2ccc(C(O)(c3cnnn3C)c3cnc(C)n3C)cc2c(C#N)c1Cc1ccc(C(F)(F)F)cc1` (single isomer, unassigned) [Example 81C, 6-((1,2-Dimethyl-1H-imidazol-5-yl)(hydroxy)(1-methyl-1H-1,2,3-triazol-5-yl)methyl)-2-methoxy-3-(4-(trifluoromethyl)benzyl)quinoline-4-carbonitrile], in test [1], the Kd is 0.12 nM. The “RORγt reporter Assay, % inhibition @ 6 μM” value on human RORγt LBD was 103%. The IC50 in test [2] worked out at 0.002 µM.

As to `COc1nc2ccc(C(O)(c3ccccc3)C3CCN(C(C)=O)CC3)cc2c(Cl)c1Cc1ccc(-n2cccn2)cc1` (single isomer, unassigned) [Example 83B, 1-(4-((3-(4-(1H-Pyrazol-1-yl)benzyl)-4-chloro-2-methoxyquinolin-6-yl)(hydroxy)(phenyl)methyl)piperidin-1-yl)ethanone], in test [1], the Kd was 4.7 nM. Also, the IC50 was 0.024 µM and ~0.07 µM on human RORγt LBD; 0.016 µM in test [2]. The inhibition at 6 µM at human RORγt LBD was found to be 100%.

As for `COc1nc2ccc(C(O)(c3ccccc3)C3CCN(C(C)=O)CC3)cc2c(Cl)c1Cc1ccc(-n2cccn2)cc1` (single isomer, unassigned) [Example 83C, 1-(4-((3-(4-(1H-Pyrazol-1-yl)benzyl)-4-chloro-2-methoxyquinolin-6-yl)(hydroxy)(phenyl)methyl)piperidin-1-yl)ethanone], the Kd in test [1] is 77 nM. For the same compound, on human RORγt LBD, the “RORγt reporter Assay, % inhibition @ 6 μM” value was determined as 103% and half-maximal inhibition (IC50) required 0.14 µM. In test [2], the IC50 was 0.12 µM.

Regarding `COc1nc2ccc(C(N)(c3ccc(C)nc3C)c3cnnn3C)cc2c(Cl)c1Cc1ccc(C(F)(F)F)cc1` (single isomer, unassigned) [Example 87C, (4-Chloro-2-methoxy-3-(4-(trifluoromethyl)benzyl)quinolin-6-yl)(2,6-dimethylpyridin-3-yl)(1-methyl-1H-1,2,3-triazol-5-yl)methanamine], the Kd in test [1] is 1.3 nM. Moreover, the “RORγt reporter Assay, % inhibition @ 6 μM” value on human RORγt LBD was found to be 99%. Also, the concentration for half-maximal inhibition (IC50) turned out to be 0.012 µM on human RORγt LBD and 0.0045 µM in test [2] (Homo sapiens, CD4+ T, 72 h).

As to `Cc1ccc(C(O)(c2ccc3nc(C#N)c(Cc4ccc(C(F)(F)F)cc4)c(C#N)c3c2)c2cnnn2C)c(C)n1` (single isomer, unassigned) [Example 88C, 6-((2,6-Dimethylpyridin-3-yl)(hydroxy)(1-methyl-1H-1,2,3-triazol-5-yl)methyl)-3-(4-(trifluoromethyl)benzyl)quinoline-2,4-dicarbonitrile], in test [1], the Kd is 0.04 nM. Besides, at human RORγt LBD, the “RORγt reporter Assay, % inhibition @ 6 μM” value came to 95% and it took 0.0088 µM to reach half-maximal inhibition (IC50). For the same compound, the IC50 in test [2] (Homo sapiens, CD4+ T, 72 h) was 0.0028 µM.

Turning to `CCc1nc2ccc(C(O)(c3cnnn3C)C3CN(C(C)=O)C3)cc2c(Cl)c1Cc1ccc(C(F)(F)F)cc1` (single isomer, unassigned) [Example 90B, 1-(3-((4-Chloro-2-ethyl-3-(4-(trifluoromethyl)benzyl)quinolin-6-yl)(hydroxy)(1-methyl-1H-1,2,3-triazol-5-yl)methyl)azetidin-1-yl)ethanone], in test [1], the Kd is 0.56 nM. Besides, the IC50 on human RORγt LBD is approximately 0.004 µM; in test [2] (Homo sapiens, CD4+ T, 72 h) it was 0.012 µM. In addition, on human RORγt LBD, the inhibition at 6 µM is 98%.

Turning to `CCc1nc2ccc(C(O)(c3cnnn3C)C3CN(C(C)=O)C3)cc2c(Cl)c1Cc1ccc(C(F)(F)F)cc1` (single isomer, unassigned) [Example 90C, 1-(3-((4-Chloro-2-ethyl-3-(4-(trifluoromethyl)benzyl)quinolin-6-yl)(hydroxy)(1-methyl-1H-1,2,3-triazol-5-yl)methyl)azetidin-1-yl)ethanone], the Kd in test [1] was 0.32 nM. Besides, on human RORγt LBD, the “RORγt reporter Assay, % inhibition @ 6 μM” value came out at 98%. For the same compound, the IC50 at human RORγt LBD came to 0.0054 µM; in test [2] it was 0.0061 µM.

`Cn1cncc1C(O)(c1ccc(C(F)(F)F)nc1)c1ccc2nc(N3CCC3)c(Cc3ccc(C(F)(F)F)cc3)c(Cl)c2c1` (single isomer, unassigned) [Example 92B, (2-(Azetidin-1-yl)-4-chloro-3-(4-(trifluoromethyl)benzyl)quinolin-6-yl)(1-methyl-1H-imidazol-5-yl)(6-(trifluoromethyl)pyridin-3-yl)methanol]: the Kd in test [1] was 12 nM. In addition, the IC50 at human RORγt LBD worked out at 0.1 µM; in test [2], 0.034 µM. Moreover, the inhibition at 6 µM on human RORγt LBD turned out to be 96%.

Consider `Cn1cncc1C(O)(c1ccc(C(F)(F)F)nc1)c1ccc2nc(N3CCC3)c(Cc3ccc(C(F)(F)F)cc3)c(Cl)c2c1` (single isomer, unassigned) [Example 92C, (2-(Azetidin-1-yl)-4-chloro-3-(4-(trifluoromethyl)benzyl)quinolin-6-yl)(1-methyl-1H-imidazol-5-yl)(6-(trifluoromethyl)pyridin-3-yl)methanol], for which the Kd in test [1] was 1.4 nM. Also, at human RORγt LBD, the “RORγt reporter Assay, % inhibition @ 6 μM” value is recorded as 97% and the IC50 came to 0.017 µM. For the same compound, the IC50 in test [2] was 0.0086 µM.

Take `COc1nc2ccc(C(O)(c3ccc(C(F)(F)F)nc3)c3cncn3C)cc2c(Cl)c1Cc1ccc(C(F)(F)F)nc1` (single isomer, unassigned) [Example 94B, (4-Chloro-2-methoxy-3-((6-(trifluoromethyl)pyridin-3-yl)methyl)quinolin-6-yl)(1-methyl-1H-imidazol-5-yl)(6-(trifluoromethyl)pyridin-3-yl)methanol]: the Kd in test [1] was 98 nM. Also, on human RORγt LBD, inhibition was half-maximal at 0.21 µM (IC50) and the inhibition at 6 µM is 96%. Besides, the IC50 in test [2] came out at 1.9 µM.

The values above are taken from US9290476B2, “Methylene linked quinolinyl modulators of RORγt” (Janssen Pharmaceutica NV, priority 2012, dated 2016).
